The test system of one data set is production of PGE2. The experiment in a line: Inhibition of PGE2 production in IL-1β-stimulated A549 cells (EIA). In kind it is cell-based. The note with it: Homo sapiens, IL-1β 1 ng/ml, 18 hours; for inhibition at 10 µM: compound 10 μM, na = not active at the experimental concentration; for IC50: negative logarithm of IC50, read-out: pIC50 PGE2 (converted). The source says: (§1) This test allows evaluation of the inhibitory capability on the production of the PGE2 prostaglandins and the selectivity relative to the production of the PGF2α prostaglandins.
(§2) The cell line A549, human pulmonary adenocarcinoma, was used, which is particularly sensitive to stimulation with pro-inflammatory cyokines, for instance IL-1β, and, in response to this stimulation, is particularly active in the production and release of two prostanoids: PGE2 and PGF2α (Thoren S. Jakobsson P-J, 2000).
(§3) The cells were stimulated with IL-1β, (1 ng/ml) and simultaneously treated with the test compound for 18 hours in an appropriate culture medium (DMEM—Dulbecco's Modified Eagle's Medium) supplemented with 5% foetal calf serum and L-glutamine (4 mM final) in an incubator at 37° C. and at a CO2 concentration of 5%.
(§4) After the incubation, the amount of PGE2 and PGF2α produced and released into the supernatant were assayed using an EIA kit (produced and sold by Cayman Chemicals, Ann Arbor, Mich., USA).
(§5) The comparative compounds used were indomethacin (Sigma-Aldrich), a non-steroidal anti-inflammatory drug that inhibits in equal measure both PGE2 and PGF2α, and also the compounds of formula (I) in which R1=CH3CH2, R2=OH, R3=R4=R5=R6=X=Y=H (comparative compound A) and R1=CH3CH2, R2=SCH3, R3=R4=R5=R6=X=Y=H (comparative compound B). […]

Another data set deals with production of PGF2α. Kind of data set: Inhibition of PGF2α production in IL-1β-stimulated A549 cells (EIA). The format is cell-based. The note with it: Homo sapiens, IL-1β 1 ng/ml, 18 hours; for inhibition at 10 µM: compound 10 μM, na = not active at the experimental concentration; for IC50: negative logarithm of IC50, read-out: pIC50 PGF2α (converted).
Description: as §1, §2, §3, §4, §5

In another data set the test system is production of PGI2. The experiment in a line: Test on human primary endothelial cells (HUVEC): inhibition of PGI2 production. In kind it is cell-based. The note with it: for Inhibition (%) of PGI2: compound at LogM −5, relative to control. The procedure:
This test allows evaluation of the capability of the compounds of the invention to inhibit the production of PGI2.
The absence of inhibitory activity on this prostanoid can ensure maintenance of the vasoprotective action of the PGI2 prostanoids and provide useful pharmacological information regarding the absence of adverse side effects on the endothelium.
The action of the test compounds is evaluated in HUVEC cells under basal conditions and conditions of stimulation (J. Immunol. 1989, Jun. 1; 142(11): 3993-9).
The results are given as a percentage of inhibition relative to the control enzymatic activity.
Indomethacin is used as reference compound.

The structures appear in SMILES notation.

In turn, `Cn1c2ccccc2c2cc(NC(=O)c3ccccc3Cl)ccc21` [Compound 1, 2-chloro-N-(9-methyl-9H-carbazol-3-yl)benzamide] gave a melting point of 206 °C. The compound also came in with an inhibition at 10 µM with production of PGE2 of 59%. In addition, the inhibition at 10 µM in the data set on production of PGF2α worked out at 27%.

In turn, `CC(C)n1c2ccccc2c2cc(NC(=O)c3ccccc3Cl)ccc21` [Compound 2, 2-chloro-N-[9-(1-methylethyl)-9H-carbazol-3-yl]benzamide] displayed a melting point of 195 °C. Further, in the data set on production of PGE2, the inhibition at 10 µM was determined as 90% and the IC50 is 794 nM. Moreover, in the data set on production of PGF2α, testing at 10 µM gave an inhibition of 66% and the IC50 was 10 µM. Moreover, in the data set on production of PGI2, the “Inhibition (%) of PGI2” value came to 31%.

As for `O=C(Nc1ccc2c(c1)c1ccccc1n2Cc1ccccc1)c1ccccc1Cl` [Compound 3, 2-chloro-N-[9-(phenylmethyl)-9H-carbazol-3-yl]benzamide], in the data set with production of PGE2, the inhibition at 10 µM came to 86% and the IC50 was 1260 nM. In the data set on production of PGF2α, the inhibition at 10 µM came to 7% and the IC50 was over 100 µM.

In the case of `CCn1c2ccccc2c2cc(NC(=O)c3ccccc3C(F)(F)F)ccc21` [Compound 4, N-(9-ethyl-9H-carbazol-3-yl)-2-(trifluoromethyl)benzamide], the melting point fell in the range of 206 to 207 °C. Also, in the data set with production of PGE2, the inhibition at 10 µM was 67% and the IC50 was 631 nM. In addition, in the data set on production of PGF2α, at 10 µM the inhibition was 0% and the IC50 is 100 µM. Further, the “Inhibition (%) of PGI2” value in the data set with production of PGI2 is 21%.

`CCn1c2ccccc2c2cc(NC(=O)c3c(C)cccc3C)ccc21` [Compound 5, N-(9-ethyl-9H-carbazol-3-yl)-2,6-dimethylbenzamide] came in with a melting point of 192 to 193 °C. This compound also showed an inhibition at 10 µM with production of PGE2 of 93%. The same compound returned an inhibition at 10 µM in the data set with production of PGF2α of 60%.

On to `CCn1c2ccccc2c2cc(NC(=O)c3ccccc3O)ccc21` [Compound A, N-(9-ethyl-9H-carbazol-3-yl)-2-hydroxybenzamide, reference compound], for which the inhibition at 10 µM in the data set on production of PGE2 was found to be 88%; in the data set on production of PGF2α, 84%.

As for `COc1ccc2c(c1)c(CC(=O)O)c(C)n2C(=O)c1ccc(Cl)cc1` [indomethacin, reference compound], the inhibition at 10 µM with production of PGE2 and with production of PGF2α was 100% in each case. Further, the IC50 in the data set on production of PGE2 is 5.01 nM; in the data set with production of PGF2α, 0.00251 µM; with production of PGI2 (Homo sapiens, PGI2, printed as a negative logarithmic figure, read-out: IC50 (comparison compound) (converted)), 10 nM.

The record behind these values is US7879900B2, “3-aminocarbazole compounds, pharmaceutical composition containing the same and method for the preparation thereof” (Aziende Chimiche Riunite Angelini Francesco A.C.R.A.F. …, priority 2005, dated 2011).
